Measured values reported in US20210254272A1, “TEXTILES HAVING ANTIMICROBIAL PROPERTIES” (Livinguard AG, priority 2015, published 2021).

How the values were obtained:
E. coli (ATCC 25922) = assay: AATCC Test Method 100-2012 antibacterial activity of the treated textile, after 25 washes and 12 abrasion cycles, contact time 60 minutes; assay type: cell-based; conditions: for Performance Test-Log reduction of antimicrobial performance: pad process, single agent 10 gm/lit, 2 min
Experimental: The antibacterial activity of the textile was tested in accordance with AATCC Test Method 100-2012. Prior to the test, the fabric was cut into coupons of 2×4 inches and washed separately 25 times, and exposed to 12 abrasion cycles, as per US EPA protocol 90072PA4 (described further below). The tests were made against E. coli (ATCC 25922). Contact time was 60 minutes, after inoculating with 10^8 CFU per coupon.

[1] = Leaching: 10 grams fabric in 100 milliliters distilled water, 7 days, GC-MS; assay type: physicochemical
Experimental: To test for a potential leaching of the antimicrobial agents fixed to the textile material, the following test was performed. A test fabric of polyester 65%/cotton 35% with 210 g/m2 was treated with polyhexamethylenebiguanide (PHMB) 0.5%, silver chloride 0.075%, octadecylaminomethyl trihydroxysilylpropyl ammonium chloride (organosilane) 0.4%, and propiconazole 0.5%
The treated textile material was put into distilled water at a ratio of 1:10. Specifically, a fabric of 10 grams was soaked in 100 milliliters of distilled water. The fabric was incubated in the water for 7 days at room temperature, i.e. between 21 and 25° C.
Following said incubation time, the fabric was removed from the water and the exposed water was tested for the presence of the above five active ingredients using gas chromatography-mass spectrometry (GC-MS).

## CCCC1COC(Cn2cncn2)(c2ccc(Cl)cc2Cl)O1 (stereo not shown) [Propiconazole, propiconazole]
E. coli (ATCC 25922); curing 120° C.
  Performance Test-Log reduction of antimicrobial performance: 0.25 Log
E. coli (ATCC 25922); curing 140° C.
  Performance Test-Log reduction of antimicrobial performance: 0.38 Log
E. coli (ATCC 25922); curing 150° C.
  Performance Test-Log reduction of antimicrobial performance: 0.42 Log
E. coli (ATCC 25922); curing 160° C.
  Performance Test-Log reduction of antimicrobial performance: 0.56 Log
E. coli (ATCC 25922); curing 180° C.
  Performance Test-Log reduction of antimicrobial performance: 2.11 Log
E. coli (ATCC 25922); pure cotton fabric, exhaust 80° C., 60 min, dosage 0.1% o.w.f
  Log reduction of antimicrobial performance: 0.63 Log
E. coli (ATCC 25922); pure cotton fabric, exhaust 80° C., 60 min, dosage 0.2% o.w.f
  Log reduction of antimicrobial performance: 1.45 Log
E. coli (ATCC 25922); pure cotton fabric, exhaust 80° C., 60 min, dosage 0.5% o.w.f
  Log reduction of antimicrobial performance: 1.95 Log
E. coli (ATCC 25922); pure cotton fabric, exhaust 80° C., 60 min, dosage 0.8% o.w.f
  Log reduction of antimicrobial performance: 2.34 Log
E. coli (ATCC 25922); pure cotton fabric, exhaust 80° C., 60 min, dosage 1.0% o.w.f
  Log reduction of antimicrobial performance: 2.85 Log
E. coli (ATCC 25922); pure cotton, exhaust 80° C., 1% o.w.f, 60 min, curing 180° C., curing dwell time 0.5 min
  Log reduction of antimicrobial performance: 0.4 Log
E. coli (ATCC 25922); pure cotton, exhaust 80° C., 1% o.w.f, 60 min, curing 180° C., curing dwell time 1.0 min
  Log reduction of antimicrobial performance: 0.8 Log
E. coli (ATCC 25922); pure cotton, exhaust 80° C., 1% o.w.f, 60 min, curing 180° C., curing dwell time 1.5 min
  Log reduction of antimicrobial performance: 2.2 Log
E. coli (ATCC 25922); pure cotton, exhaust 80° C., 1% o.w.f, 60 min, curing 180° C., curing dwell time 2.0 min
  Log reduction of antimicrobial performance: 2.8 Log
E. coli (ATCC 25922); pure cotton, exhaust 80° C., 1% o.w.f, 60 min, curing 180° C., curing dwell time 2.5 min
  Log reduction of antimicrobial performance: 2.3 Log
E. coli (ATCC 25922); pure cotton, exhaust 80° C., 1% o.w.f, 60 min, curing 180° C., curing dwell time 3.0 min
  Log reduction of antimicrobial performance: 1.2 Log
E. coli (ATCC 25922); pure polyester fabric, exhaust 80° C., 60 min, curing 180° C., curing dwell time 0.5 min
  Log reduction of antimicrobial performance: 0.4 Log
E. coli (ATCC 25922); pure polyester fabric, exhaust 80° C., 60 min, curing 180° C., curing dwell time 1.0 min
  Log reduction of antimicrobial performance: 0.8 Log
E. coli (ATCC 25922); pure polyester fabric, exhaust 80° C., 60 min, curing 180° C., curing dwell time 1.5 min
  Log reduction of antimicrobial performance: 2.2 Log
E. coli (ATCC 25922); pure polyester fabric, exhaust 80° C., 60 min, curing 180° C., curing dwell time 2.0 min
  Log reduction of antimicrobial performance: 2.74 Log
E. coli (ATCC 25922); pure polyester fabric, exhaust 80° C., 60 min, curing 180° C., curing dwell time 2.5 min
  Log reduction of antimicrobial performance: 2.35 Log
E. coli (ATCC 25922); pure polyester fabric, exhaust 80° C., 60 min, curing 180° C., curing dwell time 3.0 min
  Log reduction of antimicrobial performance: 1.2 Log
E. coli (ATCC 25922); pure polyester fabric, exhaust 80° C., 60 min, dosage 0.1% o.w.f
  Log reduction of antimicrobial performance: 0.57 Log
E. coli (ATCC 25922); pure polyester fabric, exhaust 80° C., 60 min, dosage 0.2% o.w.f
  Log reduction of antimicrobial performance: 1.35 Log
E. coli (ATCC 25922); pure polyester fabric, exhaust 80° C., 60 min, dosage 0.5% o.w.f
  Log reduction of antimicrobial performance: 1.67 Log
E. coli (ATCC 25922); pure polyester fabric, exhaust 80° C., 60 min, dosage 0.8% o.w.f
  Log reduction of antimicrobial performance: 2.14 Log
E. coli (ATCC 25922); pure polyester fabric, exhaust 80° C., 60 min, dosage 1.0% o.w.f
  Log reduction of antimicrobial performance: 2.73 Log
E. coli (ATCC 25922); solution dosage 0.10% o.w.f, exhaust temperature 40° C., process time 60 min
  Log reduction of antimicrobial performance: 0 Log
E. coli (ATCC 25922); solution dosage 0.10% o.w.f, exhaust temperature 60° C., process time 60 min
  Log reduction of antimicrobial performance: 0 Log
E. coli (ATCC 25922); solution dosage 0.10% o.w.f, exhaust temperature 65° C., process time 60 min
  Log reduction of antimicrobial performance: 0 Log
E. coli (ATCC 25922); solution dosage 0.10% o.w.f, exhaust temperature 70° C., process time 60 min
  Log reduction of antimicrobial performance: 0 Log
E. coli (ATCC 25922); solution dosage 0.10% o.w.f, exhaust temperature 75° C., process time 60 min
  Log reduction of antimicrobial performance: 0.59 Log
E. coli (ATCC 25922); solution dosage 0.10% o.w.f, exhaust temperature 80° C., process time 60 min
  Log reduction of antimicrobial performance: 0.56 Log
E. coli (ATCC 25922); solution dosage 0.10% o.w.f, exhaust temperature 85° C., process time 60 min
  Log reduction of antimicrobial performance: 0.83 Log
E. coli (ATCC 25922); solution dosage 0.10% o.w.f, exhaust temperature 90° C., process time 60 min
  Log reduction of antimicrobial performance: 0.83 Log
E. coli (ATCC 25922); solution dosage 0.10% o.w.f, exhaust temperature 95° C., process time 60 min
  Log reduction of antimicrobial performance: 0.83 Log
E. coli (ATCC 25922); solution dosage 0.20% o.w.f, exhaust temperature 40° C., process time 60 min
  Log reduction of antimicrobial performance: 0 Log
E. coli (ATCC 25922); solution dosage 0.20% o.w.f, exhaust temperature 60° C., process time 60 min
  Log reduction of antimicrobial performance: 0.08 Log
E. coli (ATCC 25922); solution dosage 0.20% o.w.f, exhaust temperature 65° C., process time 60 min
  Log reduction of antimicrobial performance: 0.09 Log
E. coli (ATCC 25922); solution dosage 0.20% o.w.f, exhaust temperature 70° C., process time 60 min
  Log reduction of antimicrobial performance: 0.12 Log
E. coli (ATCC 25922); solution dosage 0.20% o.w.f, exhaust temperature 75° C., process time 60 min
  Log reduction of antimicrobial performance: 0.89 Log
E. coli (ATCC 25922); solution dosage 0.20% o.w.f, exhaust temperature 80° C., process time 60 min
  Log reduction of antimicrobial performance: 1.34 Log
E. coli (ATCC 25922); solution dosage 0.20% o.w.f, exhaust temperature 85° C., process time 60 min
  Log reduction of antimicrobial performance: 1.45 Log
E. coli (ATCC 25922); solution dosage 0.20% o.w.f, exhaust temperature 90° C., process time 60 min
  Log reduction of antimicrobial performance: 1.45 Log
E. coli (ATCC 25922); solution dosage 0.20% o.w.f, exhaust temperature 95° C., process time 60 min
  Log reduction of antimicrobial performance: 1.45 Log
E. coli (ATCC 25922); solution dosage 0.50% o.w.f, exhaust temperature 40° C., process time 60 min
  Log reduction of antimicrobial performance: 0 Log
E. coli (ATCC 25922); solution dosage 0.50% o.w.f, exhaust temperature 60° C., process time 60 min
  Log reduction of antimicrobial performance: 0.12 Log
E. coli (ATCC 25922); solution dosage 0.50% o.w.f, exhaust temperature 65° C., process time 60 min
  Log reduction of antimicrobial performance: 0.13 Log
E. coli (ATCC 25922); solution dosage 0.50% o.w.f, exhaust temperature 70° C., process time 60 min
  Log reduction of antimicrobial performance: 0.19 Log
E. coli (ATCC 25922); solution dosage 0.50% o.w.f, exhaust temperature 75° C., process time 60 min
  Log reduction of antimicrobial performance: 1.12 Log
E. coli (ATCC 25922); solution dosage 0.50% o.w.f, exhaust temperature 80° C., process time 60 min
  Log reduction of antimicrobial performance: 1.98 Log
E. coli (ATCC 25922); solution dosage 0.50% o.w.f, exhaust temperature 85° C., process time 60 min
  Log reduction of antimicrobial performance: 2.04 Log
E. coli (ATCC 25922); solution dosage 0.50% o.w.f, exhaust temperature 90° C., process time 60 min
  Log reduction of antimicrobial performance: 2.06 Log
E. coli (ATCC 25922); solution dosage 0.50% o.w.f, exhaust temperature 95° C., process time 60 min
  Log reduction of antimicrobial performance: 2.06 Log
E. coli (ATCC 25922); solution dosage 0.80% o.w.f, exhaust temperature 40° C., process time 60 min
  Log reduction of antimicrobial performance: 0 Log
E. coli (ATCC 25922); solution dosage 0.80% o.w.f, exhaust temperature 60° C., process time 60 min
  Log reduction of antimicrobial performance: 0.18 Log
E. coli (ATCC 25922); solution dosage 0.80% o.w.f, exhaust temperature 65° C., process time 60 min
  Log reduction of antimicrobial performance: 0.19 Log
E. coli (ATCC 25922); solution dosage 0.80% o.w.f, exhaust temperature 70° C., process time 60 min
  Log reduction of antimicrobial performance: 0.23 Log
E. coli (ATCC 25922); solution dosage 0.80% o.w.f, exhaust temperature 75° C., process time 60 min
  Log reduction of antimicrobial performance: 1.35 Log
E. coli (ATCC 25922); solution dosage 0.80% o.w.f, exhaust temperature 80° C., process time 60 min
  Log reduction of antimicrobial performance: 2.34 Log
E. coli (ATCC 25922); solution dosage 0.80% o.w.f, exhaust temperature 85° C., process time 60 min
  Log reduction of antimicrobial performance: 2.56 Log
E. coli (ATCC 25922); solution dosage 0.80% o.w.f, exhaust temperature 90° C., process time 60 min
  Log reduction of antimicrobial performance: 2.61 Log
E. coli (ATCC 25922); solution dosage 0.80% o.w.f, exhaust temperature 95° C., process time 60 min
  Log reduction of antimicrobial performance: 2.61 Log
E. coli (ATCC 25922); solution dosage 1.00% o.w.f, exhaust temperature 40° C., process time 60 min
  Log reduction of antimicrobial performance: 0 Log
E. coli (ATCC 25922); solution dosage 1.00% o.w.f, exhaust temperature 60° C., process time 60 min
  Log reduction of antimicrobial performance: 0.25 Log
E. coli (ATCC 25922); solution dosage 1.00% o.w.f, exhaust temperature 65° C., process time 60 min
  Log reduction of antimicrobial performance: 0.26 Log
E. coli (ATCC 25922); solution dosage 1.00% o.w.f, exhaust temperature 70° C., process time 60 min
  Log reduction of antimicrobial performance: 0.32 Log
E. coli (ATCC 25922); solution dosage 1.00% o.w.f, exhaust temperature 75° C., process time 60 min
  Log reduction of antimicrobial performance: 1.42 Log
E. coli (ATCC 25922); solution dosage 1.00% o.w.f, exhaust temperature 80° C., process time 60 min
  Log reduction of antimicrobial performance: 2.87 Log
E. coli (ATCC 25922); solution dosage 1.00% o.w.f, exhaust temperature 85° C., process time 60 min
  Log reduction of antimicrobial performance: 2.89 Log
E. coli (ATCC 25922); solution dosage 1.00% o.w.f, exhaust temperature 90° C., process time 60 min
  Log reduction of antimicrobial performance: 2.91 Log
E. coli (ATCC 25922); solution dosage 1.00% o.w.f, exhaust temperature 95° C., process time 60 min
  Log reduction of antimicrobial performance: 2.91 Log
[1]
  Extracted water Conc, ppm: BDL (BDL-below detection limit Detection limit: 1 parts per million (ppm))
